Measured values: ChEMBL document CHEMBL4339233, “Structure-activity relationship study of antitrypanosomal chalcone derivatives using multivariate analysis” (Bioorg Med Chem Lett, 2019)

What was measured:
Trypanosoma cruzi = assay: Antitrypanosomal activity against Trypanosoma cruzi Y trypomastigotes infected in LLC-MK2-ATCC CCL7 cells assessed as reduction in parasite growth incubated for 24 hrs by Alamar blue dye based assay; format: functional, organism-based
[1] = Cytotoxicity in mouse NCTC-929 cells assessed as reduction in cell viability incubated for 48 hrs by MTT assay; format: cell-based; conditions: NCTC-929 (L929) cells
[2] = Selectivity index, ratio of CC50 for cytotoxicity in mouse NCTC-929 cells to EC50 for Antitrypanosomal activity against Trypanosoma cruzi trypomastigotes infected in LLC-MK2-ATCC CCL7 cells; format: toxicity, cell-based; conditions: read-out: Ratio CC50/EC50

| SMILES | EC50 (Trypanosoma cruzi) [µM] | CC50 at 48 h [1] [µM] | selectivity ratio [2] |
| --- | --- | --- | --- |
| CN(C)c1ccc(/C=C/C(=O)c2ccc(Cl)cc2)cc1 | > 100 | > 200 |  |
| CN(C)c1ccc(/C=C/C(=O)c2ccccc2O)cc1 | > 100 | 50.4 |  |
| O=C(/C=C/c1ccc2c(c1)OCO2)c1ccccc1O | > 100 | 140 |  |
| COc1cc(CCC(=O)c2ccc(-c3ccccc3)cc2)cc(OC)c1OC | > 100 | > 200 |  |
| O=C(CCc1ccc2c(c1)OCO2)c1ccc(Cl)cc1 | > 100 | > 200 |  |
| CN(C)c1ccc(CCC(=O)c2cccc(O)c2)cc1 | > 100 | > 200 |  |
| O=C(CCc1ccccc1)c1ccc([N+](=O)[O-])cc1 | > 100 | > 200 |  |
| O=C(/C=C/c1ccc2c(c1)OCO2)c1ccc([N+](=O)[O-])cc1 | > 100 | > 200 |  |
| COc1ccc(C(=O)/C=C/c2ccc(Cl)cc2)cc1 | > 100 | 120 |  |
| COc1ccc(C(=O)/C=C/c2ccc3c(c2)OCO3)cc1 | > 100 | > 200 |  |
| Oc1ccccc1C(O)CCc1ccccc1 (racemic) | > 100 | > 200 |  |
| O=[N+]([O-])c1ccc(C(O)CCc2ccccc2)cc1 (racemic) | > 100 | > 200 |  |
| OC(CCc1ccc2c(c1)OCO2)c1ccc(Cl)cc1 (racemic) | > 100 | > 200 |  |
| CN(C)c1ccc(CCC(O)c2cccc(O)c2)cc1 (racemic) | > 100 | > 200 |  |
| COc1ccc(C(=O)/C=C/c2ccccc2)cc1 [4'-METHOXYCHALCONE] | > 100 | 50.4 |  |

Continued, in another order:

| EC50 (Trypanosoma cruzi) [µM] | SMILES | CC50 at 48 h [1] [µM] | selectivity ratio [2] |
| --- | --- | --- | --- |
| > 100 | CN(C)c1ccc(/C=C/C(=O)c2ccc([N+](=O)[O-])cc2)cc1 | > 200 |  |
| > 100 | COc1ccc(C(=O)/C=C/c2ccc([N+](=O)[O-])cc2)cc1 | > 200 |  |
| > 100 | CN(C)c1ccc(/C=C/C(=O)c2cccc(N)c2)cc1 | 101 |  |
| > 100 | COc1ccc(C(=O)/C=C/c2ccc(N(C)C)cc2)cc1 | > 200 |  |
| > 100 | O=C(/C=C/c1ccccc1)c1ccc(-c2ccccc2)cc1 | > 200 |  |
| 3.3 | COc1cc(/C=C/C(=O)c2ccc(-c3ccccc3)cc2)cc(OC)c1OC | 29 | 8.9 |
| > 100 | CN(C)c1ccc(/C=C/C(=O)c2ccc(-c3ccccc3)cc2)cc1 | > 200 |  |
| 60.9 | O=C(/C=C/c1ccc2c(c1)OCO2)c1ccccc1 | 100 | 1.6 |
| 60 | O=C(/C=C/c1ccc2c(c1)OCO2)c1ccc(Cl)cc1 | > 200 |  |
| 26 | O=C(/C=C/c1ccccc1)c1cccc(O)c1 | 29.9 | 1.1 |
| 13.9 | O=C(/C=C/c1ccccc1)c1ccc([N+](=O)[O-])cc1 | 127 | 9.1 |
| 73.2 | CN(C)c1ccc(/C=C/C(=O)c2ccccc2)cc1 | 117 | 1.6 |
| 10.6 | C=CCOc1ccccc1C(=O)/C=C/c1ccccc1 | 77.6 | 7.3 |
| 18.9 | C=CCOc1ccccc1C(=O)/C=C/c1ccc2c(c1)OCO2 | 82.3 | 4.3 |
| 26.5 | O=C(/C=C/c1ccc2c(c1)OCO2)c1cccc(O)c1 | 24.5 | 1 |
| 28.6 | CN(C)c1ccc(/C=C/C(=O)c2cccc(O)c2)cc1 | > 200 | > 7 |
| 18.4 | COc1cc(/C=C/C(=O)c2ccccc2)cc(OC)c1OC | 27.3 | 1.5 |
| 28.3 | COc1cc(CCC(O)c2ccc(-c3ccccc3)cc2)cc(OC)c1OC (racemic) | 95.6 | 3.4 |
| 28.8 | O=C(/C=C/c1ccccc1)c1ccccc1O [2'-HYDROXYCHALCONE] | 79.5 | 2.8 |
| 16.5 | O=C(Cn1ccnc1[N+](=O)[O-])NCc1ccccc1 [BENZNIDAZOLE] | > 200 |  |
| 26.9 | O=C(/C=C/c1ccccc1)c1ccccc1 [CHALCONE] | 89.3 | 3.3 |
